Data reported in patent US20240199639A1, “PRETOMANID AMORPHOUS FORM” (THE GLOBAL ALLIANCE FOR TB DRUG DEVELOPMENT, INC., priority 2021, published 2024).
Converted amounts (≈) assume the structure as drawn. Read-outs that look alike come from different tables or passages of the source.

Key:
[1] = Kinetic solubility of nano suspension after lyophilization in FaSSIF at 37° C.; type: physicochemical; details: thermodynamic from solid, Table 20, FaSSIF
Protocol: (§1) 10 mL of FaSSIF was added into 2 vials containing 2 batches of nano suspension after Lyophilization (equivalent to 2 mg API), then the suspensions were shaken using a thermomixer at 37° C. and 100 rpm, 300 μL of suspensions were withdrawn at 15, 30, 45, 60, 90, 120 and 180 mins. The samples of suspensions were centrifuged at 14000 rpm for 10 min. The supernatants were diluted with the diluent (ACN/water, 50/50) and analyzed by UPLC.

[2] = Equilibrium solubility of PA-824 in FaSSIF containing 2% DMSO; type: physicochemical; details: thermodynamic from solid, 25° C.
[3] = Kinetic solubility of nanospray-dried ASDs in FaSSIF at 37° C.; type: physicochemical; details: thermodynamic from solid
Protocol: (§2) 10 mL of FASSIF was added into 8 vials containing each ASD prepared before by nanospray drying, respectively, then the suspensions were shaken using a thermomixer at 37° C. under 100 rpm, 300 μL of suspensions were withdrawn at 15, 30, 45, 60, 90, 120 and 180 mins. The samples of suspensions were centrifuged in 96-well plates at 3000 rpm for 5 min. The supernatants were diluted with the diluent (ACN/water, 50/50) and analyzed by HPLC.

cytochrome P450 = details: cited from earlier work
[4] = Induction time of crystallization of PA-824 in presence of HPMCAS; type: physicochemical
[5] = Amorphous solubility of PA-824; type: physicochemical
[6] = Kinetic solubility of Soluplus ASDs with different drug loadings in FaSSIF at 37° C.; type: physicochemical; details: thermodynamic from solid, Table 8, FaSSIF
Protocol: as §2, with “of FaSSIF” for “of FASSIF”, “into 3” for “into 8”, “ASD (equivalent to 5 mg API)” for “ASD”, “prepared” for “prepared before”, “centrifuged” for “centrifuged in 96-well plates”, “(ACN/water, 75/25)” for “(ACN/water, 50/50)”

[7] = test system: Gram-positive and Gram-negative bacteria; details: cited from earlier work
[8] = Supersaturated solubility measurement in FaSSIF with 2% DMSO; type: physicochemical; details: for solubility kinetic at 16 min: read-out: Measured conc.(μg/mL)
Protocol: Then 20 μL of each DMSO stock solution was added to FaSSIF at 1:49 to make the final DMSO concentration at 2% v/v. The samples were stirred at room temperature for 16 min, centrifuged and supernatants analyzed by HPLC.

[9] = Kinetic solubility of HME ASDs in FaSSIF at 37° C.; type: physicochemical; details: thermodynamic from solid; for solubility at 15 min: read-out: Solubility (μg/mL) 15 min; for solubility at 30 min: read-out: Solubility (μg/mL) 30 min; for solubility at 60 min: read-out: Solubility (μg/mL) 60 min; for solubility at 90 min: read-out: Solubility (μg/mL) 90 min; for solubility at 120 min: read-out: Solubility (μg/mL) 120 min; for solubility at 180 min: read-out: Solubility (μg/mL) 180 min
Protocol: as §1, with “into 4” for “into 2”, “containing each ASD” for “containing 2 batches of nano suspension after Lyophilization”, “to 5mg API) prepared by Hot melt extrusion, respectively,” for “to 2 mg API),”, “C. under” for “C. and”
The milled ASD products were sieved with 60 mesh sieve, and kinetic solubility test was performed with sieved ASD products as well (Table 14).

[10] = type: physicochemical
Protocol: 10 mL of SGF was added into 8 vials containing each ASD prepared by vacuum drying as described above, then the suspensions were shaken using a thermomixer at 37° C. under 100 rpm, 300 μL of suspensions were withdrawn at 1 h and the pH values were recorded. After that, 10 mL of FaSSIF was added into the suspensions containing SGF, 300 μL of suspensions were withdrawn at 1 h and 3 h, the pH values in 3 h were also recorded. The samples of suspensions were centrifuged in 96-well plates at 3000 rpm for 2 min. The supernatants were diluted with the diluent (ACN/water, 50/50) and analyzed by HPLC. […]

[11] = 15 min, read-out: Solubility (μg/mL) 15 min
[12] = 30 min, read-out: Solubility (μg/mL) 30 min
[13] = 45 min, read-out: Solubility (μg/mL) 45 min
[14] = 60 min, read-out: Solubility (μg/mL) 60 min
[15] = 90 min, read-out: Solubility (μg/mL) 90 min
[16] = 180 min, read-out: Solubility (μg/mL) 180 min

O=[N+]([O-])c1cn2c(n1)OC[C@@H](OCc1ccc(OC(F)(F)F)cc1)C2 [PA-824, (6S)-2-nitro-6-{[4-(trifluoromethoxy)benzyl]oxy}-6,7-dihydro-5H-imidazo[2,1-b][1,3]oxazine]
solubility at 15 min [1, 11]: 31.7 µg/mL (≈ 88.3 µM)
solubility at 30 min [1, 12]: 31.2 µg/mL (≈ 86.9 µM)
solubility at 45 min [1, 13]: 32.8 µg/mL (≈ 91.2 µM)
solubility at 60 min [1, 14]: 33.5 µg/mL (≈ 93.3 µM)
solubility at 90 min [1, 15]: 32.6 µg/mL (≈ 90.9 µM)
solubility at 120 min ([1]; 120 min, read-out: Solubility (μg/mL) 120 min): 39.6 µg/mL (≈ 110 µM)
solubility at 180 min [1, 16]: 31.6 µg/mL (≈ 87.8 µM)
solubility thermodynamic at 18 h [2]: 51.4 µg/mL (≈ 143 µM)
solubility at 15 min [3, 11]: 22.1 µg/mL (≈ 61.7 µM)
solubility at 30 min [3, 12]: 23.7 µg/mL (≈ 65.9 µM)
solubility at 45 min [3, 13]: 26.1 µg/mL (≈ 72.5 µM)
solubility at 60 min [3, 14]: 26.3 µg/mL (≈ 73.3 µM)
solubility at 90 min [3, 15]: 23.6 µg/mL (≈ 65.8 µM)
solubility at 180 min [3, 16]: 24.4 µg/mL (≈ 68 µM)
cytochrome P450 interactions (cytochrome P450): no significant cytochrome P450 interactions
Induction Time ([4]; 160 ug/mL PA-824, FaSSIF V1): 0.89 ± 0.26 min
Induction Time ([4]; 160 ug/mL PA-824, FaSSIF V1 + HF (1 mg/mL)): 77.6 ± 13.6 min
Induction Time ([4]; 160 ug/mL PA-824, PBS pH 6.5): 1.39 ± 0.18 min
Induction Time ([4]; 160 ug/mL PA-824, PBS pH 6.5 + HF (1 mg/mL)): 43.75 ± 1.34 min
Induction Time ([4]; PA-824 80 μg/mL, PBS pH 6.5, HPMCAS-HF 10 μg/mL): about 77.5 minutes
solubility ([5]; aqueous buffer, in PBS): ~160 µg/mL (≈ 445 µM)
solubility ([5]; in FaSSIF V1): ~300 µg/mL (≈ 835 µM)
solubility at 15 min [6, 11]: 22.1 µg/mL (≈ 61.7 µM)
solubility at 30 min [6, 12]: 23.7 µg/mL (≈ 65.9 µM)
solubility at 45 min [6, 13]: 26.1 µg/mL (≈ 72.5 µM)
solubility at 60 min [6, 14]: 26.3 µg/mL (≈ 73.3 µM)
solubility at 90 min [6, 15]: 23.6 µg/mL (≈ 65.8 µM)
solubility at 180 min [6, 16]: 24.4 µg/mL (≈ 68 µM)
activity against a broad range of Gram-positive and Gram-negative bacteria [7]: no significant activity
solubility at 16 min ([8]; fassif, kinetic from dmso stock): 53.3 µg/mL (≈ 148 µM)
solubility kinetic at 16 min ([8]; fassif, kinetic from dmso stock, target conc. 205.60 μg/mL): 30.8 µg/mL (≈ 85.8 µM)
solubility kinetic at 16 min ([8]; fassif, kinetic from dmso stock, target conc. 514.00 μg/mL): 29.5 µg/mL (≈ 82.1 µM)
solubility kinetic at 16 min ([8]; fassif, kinetic from dmso stock, target conc. 616.80 μg/mL): 28.7 µg/mL (≈ 79.9 µM)
solubility kinetic at 16 min ([8]; fassif, kinetic from dmso stock, target conc. 771.00 μg/mL): 30.3 µg/mL (≈ 84.4 µM)
Measured conc.(μg/mL) ([8]; target conc. 51.40 μg/mL): 53.08 µg/mL
Measured conc.(μg/mL) ([8]; target conc. 102.80 μg/mL): 53.27 µg/mL
Measured conc.(μg/mL) ([8]; target conc. 411.20 μg/mL): 32.98 µg/mL
Measured conc.(μg/mL) ([8]; target conc. 1028.00 μg/mL): 30.32 µg/mL
solubility at 15 min ([9]; after sieving (60 mesh)): 31.7 µg/mL (≈ 88.3 µM)
solubility at 30 min ([9]; after sieving (60 mesh)): 31.2 µg/mL (≈ 86.9 µM)
solubility at 45 min ([9]; after sieving (60 mesh), 45 min, read-out: Solubility (μg/mL) 45 min): 32.8 µg/mL (≈ 91.2 µM)
solubility at 60 min ([9]; after sieving (60 mesh)): 33.5 µg/mL (≈ 93.3 µM)
solubility at 90 min ([9]; after sieving (60 mesh)): 32.6 µg/mL (≈ 90.9 µM)
solubility at 120 min ([9]; after sieving (60 mesh)): 39.6 µg/mL (≈ 110 µM)
solubility at 180 min ([9]; after sieving (60 mesh)): 31.6 µg/mL (≈ 87.8 µM)
solubility at 15 min ([9]; without sieving): 37.2 µg/mL (≈ 103 µM)
solubility at 30 min ([9]; without sieving): 41.3 µg/mL (≈ 115 µM)
solubility at 60 min ([9]; without sieving): 46.2 µg/mL (≈ 129 µM)
solubility at 90 min ([9]; without sieving): 41.3 µg/mL (≈ 115 µM)
solubility at 120 min ([9]; without sieving): 41.4 µg/mL (≈ 115 µM)
solubility at 180 min ([9]; without sieving): 40.7 µg/mL (≈ 113 µM)
FaSSIF Conc. (μg/mL) (1 hr) ([10]; 1 h): 23.95 µg/mL
SGF Conc. (μg/mL) (1 hr) ([10]; 1 h): 12.46 µg/mL
FaSSIF Conc. (μg/mL) (3 hr) ([10]; 3 h): 24.89 µg/mL
